The test addresses T1, porcine group IB phospholipase A2 (pG-IB); Pla2 (Sus scrofa, UniProt P00592).
T1 construct: gene PLA2G1B; commercial enzyme (Sigma-Aldrich); no tag stated
Nature of the test: colorimetric phenol red assay, […] nm, lecithin hydrolysis; median-effect plot. The settings on record: read-out: Dm (mg/mL) ^a (converted). The class given is biochemical.

Three compounds from article PMC6017101, “In Silico and In Vitro Study of the Bromelain-Phytochemical Complex Inhibition of Phospholipase A2 (Pla2)” (Molecules : A Journal of Synthetic Chemistry and Natural …, 2018) can be followed below.

The structures appear in SMILES notation.

T1 sequence (P00592 23-146): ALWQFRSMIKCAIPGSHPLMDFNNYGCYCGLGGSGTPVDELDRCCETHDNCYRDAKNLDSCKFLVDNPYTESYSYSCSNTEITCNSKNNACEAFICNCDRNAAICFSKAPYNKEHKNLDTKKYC

For `O=c1cc(-c2ccc(O)c(-c3c(O)cc(O)c4c(=O)cc(-c5ccc(O)cc5)oc34)c2)oc2cc(O)cc(O)c12` [amenthoflavone], the IC50 was 200 µM.

For the compound `C[C@@H]1CC[C@@]2(OC1)O[C@H]1C[C@H]3[C@@H]4CC=C5C[C@@H](O)CC[C@]5(C)[C@H]4CC[C@]3(C)[C@H]1[C@@H]2C` [diosgenin], the IC50 was 2330 µM. Turning to `C[C@H]1[C@H](C)CC[C@]2(C(=O)O[C@@H]3O[C@H](CO[C@@H]4O[C@H](CO)[C@@H](O[C@@H]5O[C@@H](C)[C@H](O)[C@@H](O)[C@H]5O)[C@H](O)[C@H]4O)[C@@H](O)[C@H](O)[C@H]3O)CC[C@]3(C)C(=CC[C@@H]4[C@@]5(C)C[C@@H](O)[C@H](O)[C@@](C)(CO)[C@@H]5CC[C@]43C)[C@H]12` [asiaticoside], the IC50 is 328 µM.
